Measured values taken from US8178506B2, “Oligomeric compounds and compositions for use in modulation of small non-coding RNAs” (Regulus Therapeutics Inc., priority 2003, dated 2012).
In the oligonucleotide strings, read from the 5' end, every base follows the letter of its sugar. An asterisk marks phosphorothioate; unmarked linkages are phosphodiester. Other units and linkages are bracketed, terminal groups are in braces. A string of capitals states the bases alone. e = 2'-O-(2-methoxyethyl) (MOE); [5mC] = 5-methylcytosine; d = 2'-deoxy (DNA)

Experiments:
[1] = tested on: BJ, B16-F10, T47D, T47Dp53 and HeLa cells; experiment: Cell cycle assay (propidium iodide flow cytometry), cell line panel; assay type: cell-based; settings: for G1 (percentage of cells in phase of the cell cycle) / G2/M (percentage of cells in phase of the cell cycle) / S (percentage of cells in phase of the cell cycle) / SubG1 (percentage of cells in phase of the cell cycle) / aneuploid (percentage of cells): 150 nM oligomeric compound, 4.5 μg/ml LIPOFECTIN, after 72 hours, propidium iodide flow cytometry; for percentage of aneuploid cells: 150 nM, 72 hours (Table 29)
HeLa cells = experiment: Cell cycle assay in HeLa cells; assay type: cell-based, human; settings: HeLa cells, 150 nM oligomeric compound; for % cells aneuploid / % cells in cell cycle phase G1 / % cells in cell cycle phase G2/M / % cells in cell cycle phase S / % cells in cell cycle phase subG1: 24 hours, relative to untreated control (UTC = 100); for % cells in cell cycle phase: G1 / % cells in cell cycle phase: G2/M / % cells in cell cycle phase: S / % cells in cell cycle phase: aneuploid / % cells in cell cycle phase: subG1: 48 hours after treatment, relative to untreated control (UTC=100)
T47D cells = experiment: Caspase-3 activity assay (apoptosis) in T47D cells; settings: for Fold Increase over UTC (caspase-3 activity, apoptosis) / Fold Increase over UTC (caspase activity): T47D cells, 48 hours; for Fold Increase over UTC (caspase-3 activity, apoptosis): 200 nM oligomeric compound; for apoptosis in T47D cells: caspase assay, conclusion from Tables 9-12; for apoptosis in T47D cells / Fold Increase over UTC (caspase activity): 200 nM; for Fold Increase over UTC (caspase activity): relative to untreated control
adipocytes = experiment: Triglyceride accumulation assay in adipocytes; assay type: cell-based, human; settings: differentiating adipocytes transfected with oligomeric compound
aP2 = aP2 mRNA expression in adipocytes (real-time PCR); assay type: cell-based, human; settings: differentiating adipocytes transfected with oligomeric compound
HSL = HSL mRNA expression in adipocytes (real-time PCR); assay type: cell-based, human; settings: differentiating adipocytes transfected with oligomeric compound
Glut4 = Glut4 mRNA expression in adipocytes (real-time PCR); assay type: cell-based, human; settings: differentiating adipocytes transfected with oligomeric compound
PPARγ = PPARγ mRNA expression in adipocytes (real-time PCR); assay type: cell-based, human; settings: differentiating adipocytes transfected with oligomeric compound

Substance	G1 (percentage of cells in phase of the cell cycle) [1] [%]	G2/M (percentage of cells in phase of the cell cycle) [1] [%]	S (percentage of cells in phase of the cell cycle) [1] [%]	SubG1 (percentage of cells in phase of the cell cycle) [1] [%]	aneuploid (percentage of cells) [1] [%]	% cells aneuploid (HeLa cells) [%]	% cells in cell cycle phase G1 (HeLa cells) [%]	% cells in cell cycle phase G2/M (HeLa cells) [%]	% cells in cell cycle phase S (HeLa cells) [%]	% cells in cell cycle phase subG1 (HeLa cells) [%]	% cells in cell cycle phase: G1 (HeLa cells) [%]	% cells in cell cycle phase: G2/M (HeLa cells) [%]	% cells in cell cycle phase: S (HeLa cells) [%]	% cells in cell cycle phase: aneuploid (HeLa cells) [%]	% cells in cell cycle phase: subG1 (HeLa cells) [%]	Fold Increase over UTC (caspase-3 activity, apoptosis) (T47D cells; experiment of Table 12) [fold]	TG (triglyceride accumulation) (adipocytes)	AP2 mRNA (aP2)	HSL mRNA (HSL)	GLUT4 mRNA (Glut4)	further results
328644 (eG*eA*e[5mC]*eA*eA*dG*dG*dT*dG*dG*dG*dA*dG*d[5mC]*dG*eA*eG*eT*eG*eG; antisense) [compound 328644]	58.4	14	27.6	7.2	17.5	68	113	109	84	71	101	98	101	82	52	0.7					
328419 (antisense eT*eG*eT*eT*eG*d[5mC]*d[5mC]*dT*dA*dA*d[5mC]*dG*dA*dA*d[5mC]*eA*e[5mC]*eA*eG*eA) [compound 328419]	51.2	16.3	32.5	6.0	17.9	77	109	124	79	87	99	107	96	112	83	0.7					
ISIS 328394: oligomeric compound targeting mir-181a (eG*eT*eT*eT*eT*dT*dT*d[5mC]*dA*dA*dA*dT*d[5mC]*d[5mC]*d[5mC]*eA*eA*eA*e[5mC]*eT)																					percentage of aneuploid cells [1]: higher than average percentages of aneuploid cells; apoptosis in T47D cells (T47D cells): prevent or have a protective effect from apoptosis
328651 (eG*eG*eT*eA*eA*dG*dA*dG*dG*dA*dT*dG*d[5mC]*dG*d[5mC]*eT*eG*e[5mC]*eT*e[5mC]; antisense) [compound 328651]																	93 percentage of untreated control (UTC)	84 percentage of untreated control (UTC)	109 percentage of untreated control (UTC)	78 percentage of untreated control (UTC)	PPAR gamma mRNA (PPARγ): 106 percentage of untreated control (UTC); Fold Increase over UTC (caspase-3 activity, apoptosis) (T47D cells; experiment of Table 10): 0.9 fold
328417 (antisense eT*eA*eA*eT*eT*dT*dT*dA*dG*dA*dA*dT*d[5mC]*dT*dT*eA*eA*e[5mC]*eG*e[5mC]) [compound 328417]																	83 percentage of untreated control (UTC)	87 percentage of untreated control (UTC)	98 percentage of untreated control (UTC)	68 percentage of untreated control (UTC)	PPAR gamma mRNA (PPARγ): 94 percentage of untreated control (UTC); Fold Increase over UTC (caspase activity) (T47D cells): 1.0
328424 (antisense eA*eG*eG*eA*eA*dG*d[5mC]*dA*d[5mC]*dA*d[5mC]*dA*dT*dT*dA*eT*e[5mC]*eA*e[5mC]*eA) [compound 328424]	61.9	14.4	23.7	3.1	16.9	74	110	112	85	60	103	101	91	111	89						Fold Increase over UTC (caspase activity) (T47D cells): 0.9
328697 (eG*e[5mC]*eT*eT*eG*dT*d[5mC]*d[5mC]*dA*d[5mC]*dA*d[5mC]*dA*dG*dT*eT*e[5mC]*eA*eA*e[5mC]; antisense) [compound 328697]	57.6	16	26.4	2.4	13.5											1.0					
328436 (antisense eG*eA*eA*eA*eA*dT*dT*dA*dT*dA*dT*dT*dG*dA*d[5mC]*eT*e[5mC]*eT*eG*eA) [compound 328436]	59.2	13.9	26.9	3.5	17.4																Fold Increase over UTC (caspase-3 activity, apoptosis) (T47D cells; experiment of Table 10): 0.9 fold
328434 (antisense e[5mC]*eG*e[5mC]*eA*eT*d[5mC]*dT*dT*dG*dA*d[5mC]*dT*dG*dT*dA*eG*e[5mC]*eA*eT*eG) [compound 328434]																0.8	91 percentage of untreated control (UTC)	85 percentage of untreated control (UTC)	96 percentage of untreated control (UTC)	83 percentage of untreated control (UTC)	PPAR gamma mRNA (PPARγ): 79 percentage of untreated control (UTC)
328400 (antisense eA*eG*eT*eT*e[5mC]*dA*dA*dA*dA*d[5mC]*dT*d[5mC]*dA*dA*dT*e[5mC]*e[5mC]*e[5mC]*eA*eA) [compound 328400]																	60 percentage of untreated control (UTC)	34 percentage of untreated control (UTC)	40 percentage of untreated control (UTC)	18 percentage of untreated control (UTC)	PPAR gamma mRNA (PPARγ): 67 percentage of untreated control (UTC); Fold Increase over UTC (caspase activity) (T47D cells): 1.3
328388 (eT*e[5mC]*e[5mC]*e[5mC]*eA*dT*dA*dG*d[5mC]*dA*dG*dG*dG*d[5mC]*dA*eG*eA*eG*e[5mC]*e[5mC]; antisense) [compound 328388]	57.5	14.6	28	4.0	14.5	85	110	115	83	120	99	102	101	126	112	0.9					
ISIS 328396: oligomeric compound targeting mir-205 (e[5mC]*eT*eG*eG*eT*dT*dG*dG*dG*dT*dA*dT*dG*dA*dG*eA*e[5mC]*eA*eG*eA)																					percentage of aneuploid cells [1]: higher than average percentages of aneuploid cells; apoptosis in T47D cells (T47D cells): prevent or have a protective effect from apoptosis
328394 (eG*eT*eT*eT*eT*dT*dT*d[5mC]*dA*dA*dA*dT*d[5mC]*d[5mC]*d[5mC]*eA*eA*eA*e[5mC]*eT) [compound 328394]	59.5	16	24.5	2.4	18.3											0.8					
